Experimental findings from US20250221966A1, “RXFP1 AGONISTS” (BRISTOL-MYERS SQUIBB COMPANY, priority 2021, published 2025) are described below.

The structures appear in SMILES notation.

One experiment concerns the target T1, human RXFP1 (Homo sapiens, UniProt Q9HBX9).
T1 construct: expressed in transfected cells
T1 sequence (Q9HBX9 1-757): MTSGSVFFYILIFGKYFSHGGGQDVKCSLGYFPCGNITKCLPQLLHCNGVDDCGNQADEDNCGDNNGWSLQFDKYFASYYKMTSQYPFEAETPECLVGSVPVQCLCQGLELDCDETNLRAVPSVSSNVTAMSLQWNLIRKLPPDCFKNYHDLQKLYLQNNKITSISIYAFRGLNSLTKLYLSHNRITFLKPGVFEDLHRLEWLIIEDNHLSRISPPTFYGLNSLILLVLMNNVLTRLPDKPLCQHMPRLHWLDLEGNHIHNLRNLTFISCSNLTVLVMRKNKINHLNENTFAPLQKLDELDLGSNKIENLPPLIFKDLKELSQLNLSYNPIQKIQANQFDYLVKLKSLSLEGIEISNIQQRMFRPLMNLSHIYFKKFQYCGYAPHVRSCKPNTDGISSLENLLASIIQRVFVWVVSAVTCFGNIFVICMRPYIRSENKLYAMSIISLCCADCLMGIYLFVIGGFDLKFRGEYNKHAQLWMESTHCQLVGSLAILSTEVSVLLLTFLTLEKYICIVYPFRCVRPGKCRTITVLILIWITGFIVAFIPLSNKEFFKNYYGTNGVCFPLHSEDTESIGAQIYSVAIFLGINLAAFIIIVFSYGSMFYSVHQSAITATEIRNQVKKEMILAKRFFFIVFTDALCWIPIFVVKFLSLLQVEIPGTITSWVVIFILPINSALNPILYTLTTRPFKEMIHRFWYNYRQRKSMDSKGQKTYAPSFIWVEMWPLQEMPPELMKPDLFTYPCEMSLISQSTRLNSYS
Nature of the experiment: RXFP1 cAMP assay (hRXFP1 HEK293 cAMP assay, HTRF). The experiment is classed as cell-based. To be noted: HEK293 cells stably expressing human RXFP1, 30 min at room temperature, read-out: cAMP hRXFP1 HEK293 Assay EC50. In short, it runs like this: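 Intracellular cAMP was read by HTRF, with potency fitted to a 4-parameter logistic curve. Compound exposure (0.010 nM–50 μM final, 2% DMSO) lasted 30 min at room temperature. Cells were hRXFP1-HEK293 at 1500 per well in IBMX-containing (0.5 mM) HEPES-buffered HBSS.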
For orientation: Cyclic AMP is a second messenger, typically raised through Gs and lowered through Gi signalling.
As to `COC(=O)c1cccc(-c2ccc(OC)c(C(=O)N[C@H]3[C@@H](C(=O)Nc4ccc(F)c(C(F)(F)F)c4)[C@H]4CC[C@@H]3C4=C(C)C)c2)c1` [compound 86], the EC50 stood at 150 nM. On to `COc1ncc(-c2ccc(OC)c(C(=O)N[C@H]3[C@@H](C(=O)Nc4ccc(F)c(C(F)(F)F)c4)[C@H]4CC[C@@H]3C4=C(C)C)c2)cn1` [compound 88], for which the EC50 came out at 190 nM.

`COc1ccc(-c2ccncc2OC)cc1C(=O)N[C@H]1[C@@H](C(=O)Nc2ccc(F)c(C(F)(F)F)c2)[C@H]2CC[C@@H]1C2=C(C)C` [compound 89]: the EC50 came out at 330 nM. The same measure, in the same setting: then `COc1ccccc1C(=O)N[C@H]1[C@@H](C(=O)Nc2ccc(F)c(C(F)(F)F)c2)[C@H]2CC[C@@H]1/C2=C\c1ccccc1` [compound 90], with 330 nM; and `COc1ccc(-c2cn(C)nc2C)cc1C(=O)N[C@H]1[C@@H](C(=O)Nc2ccc(F)c(C(F)(F)F)c2)[C@H]2CC[C@@H]1C2=C(C)C` [compound 92], with 380 nM; and `COc1ccc(-c2ccc(C(=O)O)cc2)cc1C(=O)N[C@H]1[C@@H](C(=O)Nc2ccc(F)c(C(F)(F)F)c2)[C@H]2CC[C@@H]1/C2=C/c1ccccc1` [compound 94], with 400 nM. For the molecule `COc1ccc(-c2cccnc2F)cc1C(=O)N[C@H]1[C@@H](C(=O)Nc2ccc(F)c(C(F)(F)F)c2)[C@H]2CC[C@@H]1/C2=C/c1ccccc1` [compound 95], the EC50 amounted to 420 nM. Same read-out and setting: with `COc1ccc(-c2cnc(C)nc2)cc1C(=O)N[C@H]1[C@@H](C(=O)Nc2ccc(F)c(C(F)(F)F)c2)[C@H]2CC[C@@H]1C2=C(C)C` [compound 98] the figure was 510 nM.

For the molecule `COc1ccc(C#N)cc1C(=O)N[C@H]1[C@@H](C(=O)Nc2ccc(F)c(C(F)(F)F)c2)[C@H]2CC[C@@H]1C2=C(C)C` [compound 99], the EC50 is 540 nM.

For `COc1ccc(-c2cccc(C(=O)O)c2OC)cc1C(=O)N[C@H]1[C@@H](C(=O)Nc2ccc(F)c(C(F)(F)F)c2)[C@H]2CC[C@@H]1C2=C(C)C` [compound 101], the EC50 is 580 nM. In the case of `COc1ccc(-c2cccnc2F)cc1C(=O)N[C@H]1[C@@H](C(=O)Nc2ccc(F)c(C(F)(F)F)c2)[C@H]2CC[C@@H]1C2=C(C)C` [compound 102], the EC50 came out at 590 nM. For the molecule `COc1ccc(-c2c(C)noc2C)cc1C(=O)N[C@H]1[C@@H](C(=O)Nc2ccc(F)c(C(F)(F)F)c2)[C@H]2CC[C@@H]1C2=C(C)C` [compound 104], the EC50 was 1600 nM.

`COc1ccc(-c2ccc(F)nc2F)cc1C(=O)N[C@H]1[C@@H](C(=O)Nc2ccc(F)c(C(F)(F)F)c2)[C@H]2CC[C@@H]1C2=C(C)C` [compound 106]: the EC50 is 2700 nM.

As for `COc1ccc(Cl)cc1C(=O)N[C@@H]1C2CCC(C2=C(C)C)[C@@H]1C(=O)Nc1ccc(F)c(C(F)(F)F)c1` (some centres unmarked) [compound 109], the EC50 is 390 nM. In the case of `COc1ccc(F)cc1C(=O)N[C@@H]1C2CCC(C2=C(C)C)[C@@H]1C(=O)Nc1ccc(F)c(C(F)(F)F)c1` (some centres unmarked) [compound 111], the EC50 is 860 nM. As to `CC(C)=C1C2CCC1[C@H](C(=O)Nc1ccc(F)c(C(F)(F)F)c1)[C@@H]2NC(=O)c1ccccc1OC(C)C` (some centres unmarked) [compound 115], the EC50 came out at 1100 nM. In the case of `CC(C)=C1C2CCC1[C@H](C(=O)Nc1ccc(F)c(C(F)(F)F)c1)[C@@H]2NC(=O)c1ccccc1N(C)C` (some centres unmarked) [compound 119], the EC50 worked out at 3900 nM. Consider `COc1ccc(-c2cc(C(=O)O)ccc2F)cc1C(=O)N[C@@H]1C2CCC(/C2=C/c2ccccc2)[C@@H]1C(=O)Nc1cccc(S(=O)(=O)C(F)(F)F)c1` (some centres unmarked) [compound 122], for which the EC50 stood at 13 nM.

As to `COc1cc(F)c(F)cc1C(=O)N[C@@H]1C2CCC(/C2=C/c2ccco2)[C@@H]1C(=O)Nc1ccc(F)c(C(F)(F)F)c1` (some centres unmarked) [compound 123], the EC50 is 210 nM. Still for that read-out and setting: with `COc1cc(F)c(F)cc1C(=O)N[C@@H]1C2CCC(/C2=C/c2cccs2)[C@@H]1C(=O)Nc1ccc(F)c(C(F)(F)F)c1` (some centres unmarked) [compound 124] the figure was 210 nM; with `COc1ccc(C#N)cc1C(=O)N[C@@H]1C2CCC(/C2=C/c2ccccc2)[C@@H]1C(=O)Nc1ccc(F)c(C(F)(F)F)c1` (some centres unmarked) [compound 128], 55 nM; with `COc1ccc(-c2cc(C(=O)O)ccc2F)cc1C(=O)N[C@@H]1C2CCC(/C2=C/c2cncnc2)[C@@H]1C(=O)Nc1ccc(F)c(C(F)(F)F)c1` (some centres unmarked) [compound 129], 60 nM. On to `COc1ccc(-c2cc(C(=O)NS(C)(=O)=O)ccc2F)cc1C(=O)N[C@@H]1C2CCC(C2=C(C)C)[C@@H]1C(=O)Nc1ccc(F)c(C(F)(F)F)c1` (some centres unmarked) [compound 131], for which the EC50 amounted to 130 nM. Regarding `COc1c(I)cc(I)cc1C(=O)N[C@@H]1C2CCC(/C2=C/c2ccccc2)[C@@H]1C(=O)Nc1ccc(F)c(C(F)(F)F)c1` (some centres unmarked) [compound 132], the concentration for a half-maximal effect (EC50) is 220 nM.

Consider `CCO/N=C1\C2CCC1[C@H](C(=O)Nc1ccc(F)c(C(F)(F)F)c1)[C@@H]2NC(=O)c1cc(F)c(F)cc1OC` (some centres unmarked) [compound 133], for which the EC50 was 1700 nM.

Consider `CCCC#C/C=C1\C2CCC1[C@H](C(=O)Nc1ccc(F)c(C(F)(F)F)c1)[C@@H]2NC(=O)c1cc(F)c(F)cc1OC` (some centres unmarked) [compound 135], for which the EC50 came out at 370 nM.

Consider `COc1cc(F)c(F)cc1C(=O)N[C@@H]1C2CCC(/C2=C/c2ccccn2)[C@@H]1C(=O)Nc1ccc(F)c(C(F)(F)F)c1` (some centres unmarked) [compound 137], for which the EC50 is 480 nM. With `COc1cc(F)c(F)cc1C(=O)N[C@@H]1C2CCC(/C2=C/c2ccccc2)[C@@H]1C(=O)Nc1cccc(S(C)(=O)=O)c1` (some centres unmarked) [compound 139], the EC50 is 550 nM. Still for that read-out and setting: then `COc1ccc(N2CCCC(C(=O)O)C2)cc1C(=O)N[C@@H]1C2CCC(C2=C(C)C)[C@@H]1C(=O)Nc1ccc(F)c(C(F)(F)F)c1` (some centres unmarked) [compound 142], with 2900 nM; and `COC(=O)N1CC=C(c2ccc(OC)c(C(=O)N[C@@H]3C4CCC(C4=C(C)C)[C@@H]3C(=O)Nc3ccc(F)c(C(F)(F)F)c3)c2)CC1` (some centres unmarked) [compound 143], with 2800 nM; and `COc1ccc(C2=CCNCC2)cc1C(=O)N[C@@H]1C2CCC(C2=C(C)C)[C@@H]1C(=O)Nc1ccc(F)c(C(F)(F)F)c1` (some centres unmarked) [compound 148], with 910 nM. As for `CNC(=O)c1ccc(F)c(-c2ccc(OC)c(C(=O)N[C@H]3[C@@H](C(=O)Nc4ccc(F)c(C(F)(F)F)c4)[C@H]4CC[C@@H]3C4=C(C)C)c2)c1` [compound 151], the EC50 is 240 nM. As for `COc1ccc(-c2cc(-c3nnn[nH]3)ccc2F)cc1C(=O)N[C@@H]1C2CCC(/C2=C/c2ccccc2)[C@@H]1C(=O)Nc1ccc(F)c(C(F)(F)F)c1` (some centres unmarked) [compound 152], the EC50 is 8 nM. With `COc1ccc(-c2cc(C(=O)NC(C)C)ccc2F)cc1C(=O)N[C@@H]1C2CCC(C2=C(C)C)[C@@H]1C(=O)Nc1ccc(F)c(C(F)(F)F)c1` (some centres unmarked) [compound 153], the EC50 was determined as 140 nM.

`COc1ccc(-c2cc(CC(=O)O)ccc2F)cc1C(=O)N[C@@H]1C2CCC(C2=C(C)C)[C@@H]1C(=O)Nc1ccc(F)c(C(F)(F)F)c1` (some centres unmarked) [compound 155]: the EC50 amounted to 87 nM. Take `CC/C=C1\C2CCC1[C@H](C(=O)Nc1ccc(F)c(C(F)(F)F)c1)[C@@H]2NC(=O)c1cc(-c2cc(C(=O)NC)ccc2F)ccc1OC` (some centres unmarked) [compound 156]: the EC50 came to 11 nM. Take `COc1ccc(-c2cc(C(=O)NS(=O)(=O)C3CC3)ccc2F)cc1C(=O)N[C@@H]1C2CCC(C2=C(C)C)[C@@H]1C(=O)Nc1ccc(F)c(C(F)(F)F)c1` (some centres unmarked) [compound 157]: the EC50 was determined as 610 nM. For the molecule `C=C/C=C1\C2CCC1[C@H](C(=O)Nc1ccc(F)c(C(F)(F)F)c1)[C@@H]2NC(=O)c1cc(-c2cc(C(=O)O)ccc2F)ccc1OC` (some centres unmarked) [compound 158], the EC50 turned out to be 100 nM. Same read-out and setting: then `COc1ccc(-c2cc(C(=O)O)ccc2F)cc1C(=O)N[C@@H]1C2CCC(/C2=C/c2ccoc2)[C@@H]1C(=O)Nc1ccc(F)c(C(F)(F)F)c1` (some centres unmarked) [compound 159], with 21 nM; and `COc1ccc(-c2cc(C(=O)NS(C)(=O)=O)ccc2F)cc1C(=O)N[C@@H]1C2CCC(/C2=C/Br)[C@@H]1C(=O)Nc1ccc(F)c(C(F)(F)F)c1` (some centres unmarked) [compound 161], with 110 nM. Take `C=C/C=C1\C2CCC1[C@H](C(=O)Nc1ccc(F)c(C(F)(F)F)c1)[C@@H]2NC(=O)c1cc(-c2cc(C(=O)NS(C)(=O)=O)ccc2F)ccc1OC` (some centres unmarked) [compound 162]: the EC50 came to 40 nM. In the case of `C=C/C=C1\C2CCC1[C@H](C(=O)Nc1ccc(F)c(C(F)(F)F)c1)[C@@H]2NC(=O)c1cc(-c2cc(C(N)=O)ccc2F)ccc1OC` (some centres unmarked) [compound 163], the 50% effective concentration (EC50) stood at 13 nM. As for `C=C/C=C1\C2CCC1[C@H](C(=O)Nc1ccc(F)c(C(F)(F)F)c1)[C@@H]2NC(=O)c1cc(-c2cc(C(=O)NC)ccc2F)ccc1OC` (some centres unmarked) [compound 164], the EC50 came out at 14 nM.

The experiment is the same for the next values; noted with them: cAMP hRXFP1 HEK293 Assay EC50, HEK293 cells stably expressing human RXFP1, 30 min at room temperature.
`COc1ccc(-c2cc(C(=O)O)ccc2F)cc1C(=O)N[C@H]1[C@@H](C(=O)Nc2ccc(F)c(C(F)(F)F)c2)[C@H]2CC[C@@H]1/C2=C/c1ccccc1` [compound 91] yielded an EC50 of 360 nM.

Usually EC50 stands for the concentration giving half of the maximal effect.
